Measured values taken from ChEMBL document CHEMBL1129910, “Synthesis of an aminopropyl analog of the experimental anticancer drug tallimustine, and activation of its 4-nitrobenzylcarbamoyl prodrug by nitroreductase and NADH” (Bioorg Med Chem Lett, 1997).

How the values were obtained:
Assay type in all cases: functional, cell-based
[1] = Cytotoxicity against the growth of LS174T human colon cancer cells was determined using sulforhodamine B assay in the presence of Nitroreductase+NADH
[2] = Cytotoxicity against the growth of LS174T human colon cancer cells was determined using sulforhodamine B assay
[3] = Cytotoxicity against the growth of […] human colon cancer cells was determined using sulforhodamine B assay; details: Cancer cell lines
[4] = Cytotoxicity against the growth of […] human colon cancer cells was determined using sulforhodamine B assay in the presence of Nitroreductase+NADH; details: Cancer cell lines

Cn1cc(NC(=O)c2cc(NC(=O)c3cc(NC(=O)c4ccc(N(CCCl)CCCl)cc4)cn3C)cn2C)cc1C(=O)NCCCNC(=O)OCc1ccc([N+](=O)[O-])cc1
IC50 [1]: 0.02 µM | IC50 [2]: 2.3 µM | IC50 [3]: 22.9 µM | IC50 [4]: 9.4 µM

Cn1cc(NC(=O)c2cc(NC(=O)c3cc(NC(=O)c4ccc(N(CCCl)CCCl)cc4)cn3C)cn2C)cc1C(=O)NCCCN
IC50 [2]: 0.02 µM | IC50 [3]: 10 µM
